Test results as given in US12350270B2, “Antimalarial agents” (Merck Sharp & Dohme LLC, priority 2019, dated 2025).

Test system: parasites (ring stage, in human red blood cell culture)
Assay: Parasite LDH growth assay (antiparasite potency, Parasite Assay)
Format: cell-based, Plasmodium falciparum
Details: 0.7% rings, 2% haematocrit, 72 hours at 37° C., LDH readout of parasite growth
Method in brief: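 Ring-stage parasites at 0.7% parasitemia and 2% haematocrit, in RPMI-Hepes/bicarbonate with 5% heat-inactivated human serum and 0.5% albumax, were added to compound-containing medium. Cultures grew 72 h at 37 °C in gassed humidified boxes. Plates were then frozen overnight at −80 °C, thawed 4 h, and growth was measured by LDH assay.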

**Q.** For CCC1(CC)CC(=O)N([C@@H]2CCOc3ccc(C(=O)NC4c5ccccc5CC4(O)C(F)(F)F)cc32)C(=N)N1 (single isomer, unassigned) [Example 272C], which EC50 is on record?
**A.** The EC50 was 0.9 nM.

**Q.** For CCC1(CC)CC(=O)N([C@@H]2CCOc3ccc(C(=O)NC4c5ccccc5OCC4O)cc32)C(=N)N1 (single isomer, unassigned) [Example 8C], which EC50 is on record?
**A.** Its EC50 is 120 nM.

**Q.** CC[C@]1(C)CC(=O)N([C@@H]2CCOc3ccc(C(=O)NC4c5cc(F)ccc5OCC4(C)O)cc32)C(=N)N1 (single isomer, unassigned) [Example 190A] was tested. Which EC50 did it give?
**A.** Its EC50 is 261 nM.

**Q.** Which EC50 does the source give for COCC1(C)CC(N2C(=N)NC(C)(C)CC2=O)c2cc(C(=O)N[C@@H]3c4ccccc4OC(C)(C)[C@H]3O)ccc2O1 (single isomer, unassigned) [Example 282A] here?
**A.** The EC50 was 7.8 nM.

**Q.** For CCC1(CC)CC(=O)N([C@H]2c3cc(C(=O)N[C@@H]4c5ccccc5OC(C)(C)[C@H]4O)ccc3OC2(C)COC)C(=N)N1 (single isomer, unassigned) [Example 73B], which EC50 is on record?
**A.** Its EC50 is 1.7 nM.

**Q.** CCC1(CC)CC(=O)N([C@@H]2CCOc3ccc(C(=O)NC4c5c(OC)cccc5OCC4(C)O)cc32)C(=N)N1 (single isomer, unassigned) [Example 259C] was tested. Which EC50 did it give?
**A.** The EC50 was 3.6 nM.

**Q.** CCC1(CC)CC(=O)N([C@@H]2CCS(=O)(=O)c3ccc(C(=O)N[C@H]4CC(C)(C)Oc5ccccc54)cc32)C(=N)N1 [Example 289, (4R)-4-(4,4-diethyl-2-imino-6-oxo-hexahydropyrimidin-1-yl)-N-[(4S)-2,2-dimethylchroman-4-yl]-1,1-dioxo-3,4-dihydro-2H-thiochromane-6-carboxamide] was tested. Which EC50 did it give?
**A.** Its EC50 is 0.6 nM.

**Q.** How did the EC50 turn out when CCOC(=O)C1(C)Oc2ccccc2C1NC(=O)c1ccc2c(c1)[C@H](N1C(=N)NC(CC)(CC)CC1=O)CCO2 (single isomer, unassigned) [Example 65C] was run?
**A.** Its EC50 is 26 nM.

**Q.** For CCC1(CC)CC(=O)N([C@@H]2CCOc3ccc(C(=O)NC4c5ccccc5OC4(C)CO)cc32)C(=N)N1 (single isomer, unassigned) [Example 176C], which EC50 is on record?
**A.** Its EC50 is 2.4 nM.

**Q.** How did the EC50 turn out when CCC1(CC)CC(=O)N([C@@H]2CCOc3ccc(C(=O)NC4c5c(OC)cccc5OCC4(C)O)cc32)C(=N)N1 (single isomer, unassigned) [Example 259D] was run?
**A.** Its EC50 is 10.6 nM.

Same assay, conditions: Plasmodium falciparum, Erythrocyte, 72 h, 0.7% rings, 2% haematocrit, 72 hours at 37° C., LDH readout of parasite growth

**Q.** How did the EC50 turn out when CC[C@]1(C)CC(=O)N([C@@H]2C[C@@H](C)Oc3ccc(C(=O)N[C@@H]4c5ccccc5C[C@@]4(C)O)cc32)C(=N)N1 [Example 129, (2R,4R)-4-[(4R)-4-ethyl-2-imino-4-methyl-6-oxo-hexahydropyrimidin-1-yl]-N-[(1R,2R)-2-hydroxy-2-methyl-indan-1-yl]-2-methyl-chromane-6-carboxamide] was run?
**A.** The EC50 was 3.5 nM.

**Q.** Which EC50 does the source give for CC[C@]1(C)CC(=O)N([C@@H]2C[C@@H](C)c3ccc(C(=O)N[C@@H]4c5ccccc5C[C@]4(C)O)cc32)C(=N)N1 [Example 96, (1R,3R)-3-[(4R)-4-ethyl-2-imino-4-methyl-6-oxo-hexahydropyrimidin-1-yl]-N-[(1R,2S)-2-hydroxy-2-methyl-indan-1-yl]-1-methyl-indane-5-carboxamide] here?
**A.** The EC50 was 6.5 nM.

**Q.** For CC[C@]1(C)CC(=O)N([C@@H]2CCOc3ccc(C(=O)N[C@@H]4c5cc(F)ccc5OC(C)(C)[C@H]4O)cc32)C(=N)N1 [Example 224, (4R)-4-[(4R)-4-ethyl-2-imino-4-methyl-6-oxo-hexahydropyrimidin-1-yl]-N-[(3S,4R)-6-fluoro-3-hydroxy-2,2-dimethyl-chroman-4-yl]chromane-6-carboxamide], which EC50 is on record?
**A.** Its EC50 is 0.3 nM.

**Q.** For CCC1(CC)CC(=O)N([C@@H]2CCc3ccc(C(=O)N[C@@H]4c5ccccc5OC[C@@]4(C)O)cc32)C(=N)N1 [Example 123, (3R)-3-(4,4-diethyl-2-imino-6-oxo-hexahydropyrimidin-1-yl)-N-[(3S,4R)-3-hydroxy-3-methyl-chroman-4-yl]indane-5-carboxamide], which EC50 is on record?
**A.** The EC50 was 2.8 nM.

**Q.** How did the EC50 turn out when COCC1(C)Oc2ccc(C(=O)N[C@@H]3c4ccccc4C[C@H]3O)cc2C1N1C(=N)NC(C)(C)CC1=O (stereo partly drawn) [Example 146, N-[(1R,2R)-2-hydroxyindan-1-yl]-3-(2-imino-4,4-dimethyl-6-oxo-hexahydropyrimidin-1-yl)-2-(methoxymethyl)-2-methyl-3H-benzofuran-5-carboxamide] was run?
**A.** Its EC50 is 35.5 nM.

**Q.** How did the EC50 turn out when CC[C@]1(C)CC(=O)N([C@@H]2CCOc3ccc(C(=O)N[C@@H]4c5cc(Cl)ccc5OC[C@@]4(C)O)cc32)C(=N)N1 [Example 230, (4R)-N-[(3S,4R)-6-chloro-3-hydroxy-3-methyl-chroman-4-yl]-4-[(4R)-4-ethyl-2-imino-4-methyl-6-oxo-hexahydropyimidin-1-yl]chromane-6-carboxamide] was run?
**A.** Its EC50 is 2.7 nM.

**Q.** With CCC1(CC)CC(=O)N([C@@H]2C[C@@H](COCCOCCOCCNC(=O)OC(C)(C)C)Oc3ccc(C(=O)N[C@H]4CC(C)(C)Oc5ccccc54)cc32)C(=N)N1 [Example 314, tert-butyl N-[2-[2-[2-[[(2S,4R)-4-(4,4-diethyl-2-imino-6-oxo-hexahydropyrimidin-l-yl)-6-[[(4S)-2,2-dimethylchroman-4-yl]carbamoyl]chroman-2-yl]methoxy]ethoxy]ethoxy]ethyl]carbamate] as the molecule, how does the EC50 read?
**A.** The EC50 was 7.3 nM.

**Q.** With CCC1(CC)CC(=O)N([C@H]2c3cc(C(=O)N[C@@H]4c5ccccc5OC(C)(C)[C@H]4O)ccc3OC[C@H]2C)C(=N)N1 [Example 241, (3S,4R)-4-(4,4-diethyl-2-imino-6-oxo-hexahydropyrimidin-1-yl)-N-[(3S,4R)-3-hydroxy-2,2-dimethyl-chroman-4-yl]-3-methyl-chromane-6-carboxamide] as the molecule, how does the EC50 read?
**A.** The EC50 was 0.4 nM.

**Q.** CCC1(CC)CC(=O)N(C2CCOc3ccc(C(=O)N[C@H]4CC(C)(C)Oc5ccccc54)cc32)C(=N)N1 (stereo partly drawn) [Example 1A, 4-(4,4-diethyl-2-imino-6-oxotetrahydropyrimidin-1(2H)-yl)-N—((S)-2,2-dimethylchroman-4-yl)chroman-6-carboxamide] was tested. Which EC50 did it give?
**A.** Its EC50 is 0.5 nM.

**Q.** CCC1(CC)C[C@@H](N2C(=N)NC(C)(C)CC2=O)c2cc(C(=O)N[C@H]3c4cc(F)ccc4OC(C)(C)[C@@H]3O)ccc2O1 [Example 59A, (R)-2,2-diethyl-N-((3R,4S)-6-fluoro-3-hydroxy-2,2-dimethylchroman-4-yl)-4-(2-imino-4,4-dimethyl-6-oxotetrahydropyrimidin-yl)chromane-6-carboxamide] was tested. Which EC50 did it give?
**A.** Its EC50 is 210 nM.

**Q.** How did the EC50 turn out when CCC1(CC)CC(=O)N([C@H]2c3cc(C(=O)N[C@H]4CC(C)(C)Oc5ccccc54)ccc3OC2(COC)COC)C(=N)N1 [Example 304, (3S)-3-(4,4-diethyl-2-imino-6-oxo-hexahydropyrimidin-1-yl)-N-[(4S)-2,2-dimethylchroman-4-yl]-2,2-bis(methoxymethyl)-3H-benzofuran-5-carboxamide] was run?
**A.** The EC50 was 5.6 nM.

**Q.** Which EC50 does the source give for CCC1(CC)CC(=O)N([C@@H]2CCCOc3ccc(C(=O)N[C@@H]4c5ccccc5OC[C@@]4(C)O)cc32)C(=N)N1 [Example 211, (5R)-5-(4,4-diethyl-2-imino-6-oxo-hexahydropyrimidin-1-yl)-N-[(3S,4R)-3-hydroxy-3-methyl-chroman-4-yl]-2,3,4,5-tetrahydro-1-benzoxepine-7-carboxamide] here?
**A.** Its EC50 is 8.9 nM.

**Q.** CCC1(CC)CC(=O)N([C@H]2c3cc(C(=O)N[C@@H]4c5ccccc5C[C@H]4O)ccc3OC[C@@H]2COC)C(=N)N1 [Example 216, (3S,4R)-4-(4,4-diethyl-2-imino-6-oxo-hexahydropyrimidin-1-yl)-N-[(1R,2R)-2-hydroxyindan-1-yl]-3-(methoxymethyl)chromane-6-carboxamide] was tested. Which EC50 did it give?
**A.** The EC50 was 2.7 nM.

**Q.** Which EC50 does the source give for CCC1(CC)CC(=O)N([C@H]2c3cc(C(=O)N[C@@H]4c5ccccc5OC(C)(C)[C@H]4O)ccc3OC[C@H]2COC)C(=N)N1 [Example 298, (3R,4R)-4-(4,4-diethyl-2-imino-6-oxotetrahydropyrimidin-1(2H)-yl)-N-((3S,4R)-3-hydroxy-2,2-dimethylchroman-4-yl)-3-(methoxymethyl)chromane-6-carboxamide] here?
**A.** The EC50 was 0.5 nM.

**Q.** CC1(C)CC(=O)N([C@@H]2CCS(=O)(=O)c3ccc(C(=O)N[C@H]4C[C@H](C(F)(F)F)Oc5ccccc54)cc32)C(=N)N1 [Example 293, (4R)-4-(2-imino-4,4-dimethyl-6-oxo-hexahydropyrimidin-1-yl)-1,1-dioxo-N-[(2R,4S)-2-(trifluoromethyl)chroman-4-yl]-3,4-dihydro-2H-thiochromene-6-carboxamide] was tested. Which EC50 did it give?
**A.** Its EC50 is 2.8 nM.

**Q.** CCC1(CC)CC(=O)N([C@H]2CCS(=O)(=O)c3ccc(C(=O)N[C@@H]4c5ccccc5C[C@]4(C)O)cc32)C(=N)N1 [Example 263, (4S)-4-(4,4-diethyl-2-imino-6-oxo-hexahydropyrimidin-1-yl)-N-[(1R,2S)-2-hydroxy-2-methyl-indan-1-yl]-1,1-dioxo-3,4-dihydro-2H-thiochromene-6-carboxamide] was tested. Which EC50 did it give?
**A.** Its EC50 is 74.8 nM.

**Q.** Which EC50 does the source give for CCC1(CC)CC(=O)N(C2CC(C(=O)N(C)C)Oc3ccc(C(=O)N[C@@H]4c5ccccc5C[C@@]4(C)O)cc32)C(=N)N1 (stereo partly drawn) [Example 292, 4-(4,4-diethyl-2-imino-6-oxo-hexahydropyrimidin-1-yl)-N6-[(1R,2R)-2-hydroxy-2-methyl-indan-1-yl]-N2,N2-dimethyl-chromane-2,6-dicarboxamide] here?
**A.** Its EC50 is 49.7 nM.

**Q.** With CCC1(CC)CC(=O)N([C@@H]2Cc3ccc(C(=O)N[C@@H]4c5ccccc5C[C@H]4O)cc32)C(=N)N1 [Example 83, (8R)-8-(4,4-diethyl-2-imino-6-oxo-hexahydropyrimidin-1-yl)-N-[(1R,2R)-2-hydroxyindan-1-yl]bicyclo[4.2.0]octa-1(6),2,4-triene-3-carboxamide] as the molecule, how does the EC50 read?
**A.** The EC50 was 20 nM.

**Q.** Which EC50 does the source give for CC1(C)CC(=O)N([C@@H]2CCOc3ccc(C(=O)N[C@@H]4c5ccccc5OC(C)(C)[C@@]4(C)O)cc32)C(=N)N1 [Example 172, (4R)-N-[(3S,4R)-3-hydroxy-2,2,3-trimethyl-chroman-4-yl]-4-(2-imino-4,4-dimethyl-6-oxo-hexahydropyrimidin-1-yl)chromane-6-carboxamide] here?
**A.** The EC50 was 0.9 nM.

**Q.** With CC1(C)CC(=O)N([C@@H]2CCc3ccc(C(=O)N[C@@H]4c5cc(F)ccc5OC(C)(C)[C@H]4O)cc32)C(=N)N1 [Example 149, (3R)-N-[(3S,4R)-6-fluoro-3-hydroxy-2,2-dimethyl-chroman-4-yl]-3-(2-imino-4,4-dimethyl-6-oxo-hexahydropyrimidin-1-yl)indane-5-carboxamide] as the molecule, how does the EC50 read?
**A.** Its EC50 is 1.1 nM.
